Results taken from US10947229B2, “Dimethyl amino azetidine amides as JAK inhibitors” (THERAVANCE BIOPHARMA R&D IP, LLC, priority 2018, dated 2021).

How the values were obtained:
[1] = biological target: JAK2 (Homo sapiens (Human), UniProt O60674); experiment: Biochemical JAK kinase assay (LanthaScreen), JAK2; conditions: read-out: JAK2 pKi (converted)
Method: Recombinant GST-tagged JAK enzymes and a GFP-tagged STAT1 peptide substrate were obtained from Life Technologies. Serially diluted compounds were pre-incubated with each of the four JAK enzymes and the substrate in white 384-well microplates (Corning) at ambient temperature for 1 h. ATP was subsequently added to initiate the kinase reactions in 10 μL total volume, with 1% DMSO. […] Kinase reactions were allowed to proceed for 1 hour at ambient temperature before a 10 μL preparation of EDTA (10 mM final concentration) and Tb-anti-pSTAT1 ([…]) antibody (Life Technologies, 2 nM final concentration) in TR-FRET dilution buffer (Life Technologies) was added. The plates were allowed to incubate at ambient temperature for 1 h before being read on the EnVision reader (Perkin Elmer). Emission ratio signals (520 nm/495 nm) were recorded and utilized to calculate the percent inhibition values based on DMSO and background controls. For dose-response analysis, percent inhibition data were plotted vs. compound concentrations, and IC50 values were determined from a 4-parameter robust fit model with the Prism software (GraphPad Software). Results were expressed as pIC50 (negative logarithm of IC50) and subsequently converted to pKi (negative logarithm of dissociation constant, Ki) using the Cheng-Prusoff equation. Test compounds having a lower Ki value or higher pKi value in the four JAK assays show greater inhibition of JAK activity.

[2] = Lung and plasma drug concentration in the IL-13 pSTAT6 mouse model; format: in vivo; conditions: lung to plasma ratio at 5 hours
Method: Adult Balb/c mice from Harlan were used in the assay. […] Animals were placed in lateral recumbency post dose and monitored for full recovery from anesthesia before being returned to their home cage. Four hours later, animals were once again briefly anesthetized and challenged with either vehicle or IL-13 (0.03 μg total dose delivered, 50 μL total volume) via oral aspiration before being monitored for recovery from anesthesia and returned to their home cage. One hour after vehicle or IL-13 administration, whole blood and lungs were collected for both pSTAT6 detection in lung homogenates using a Perkin Elmer AlphaLISA® SureFire® Ultra™ HV p-STAT6 (Tyr641) assay kit and for total drug concentration analysis in both lung and plasma. Blood samples were centrifuged (Eppendorf centrifuge, 5804R) for 4 minutes at approximately 12,000 rpm at 4° C. to collect plasma. […] Plasma and lung levels of test compound were determined by LC-MS analysis against analytical standards constructed into a standard curve in the test matrix. A lung to plasma ratio was determined as the ratio of the lung concentration in ng/g to the plasma concentration in ng/mL at 5 hours.

[3] = test system: IL-12 stimulated STAT4 phosphorylation in CD3+ T cells; experiment: Cellular JAK potency assay: inhibition of IL-12-induced pSTAT4; format: cell-based; conditions: T-cell; CD3+ T cells from human whole blood; read-out: pIC50, inhibition of IL-12-induced pSTAT4 (converted)
Method: The potency of test compounds for inhibition of interleukin-12 (IL-12) stimulated STAT4 phosphorylation was measured in CD3-positive (CD3+) T cells derived from human whole blood (Stanford Blood Center) using flow cytometry. Because IL-12 signals through JAK, this assay provides a measure of JAK cellular potency. CD3+ T cells were identified using a phycoerythrin (PE) conjugated anti-CD3 antibody (clone UCHT1, BD Biosciences), and an Alexa Fluor 647 conjugated anti-pSTAT4 antibody (clone 38/p-Stat4, BD Biosciences) was used to detect STAT4 phosphorylation. Human peripheral blood mononuclear cells (PBMC) were isolated from human whole blood of healthy donors using a ficoll gradient. […] After incubation, cells were washed twice in FACS buffer before being analyzed using a MACSQuant flow cytometer (Miltenyi). To determine the inhibitory potency of the test compound, the median fluorescent intensity (MFI) of pSTAT4 was measured in CD3+ T cells. IC50 values were determined from analysis of the inhibition curves of MFI vs compound concentration. Data are expressed as pIC50 (negative decadic logarithm IC50) values.

[4] = test system: spontaneous IL-6 secretion; experiment: Inhibition of spontaneous IL-6 secretion in human 3D airway cultures from asthmatic donors; format: cell-based; conditions: 192 h, 8 days, 3 or 4 donors
Method: EpiAirway tissue cultures were obtained from Mattek (AIR-100). Cells were derived from asthmatic donors that spontaneously secrete periostin, a matricellular protein associated with Th2 mediated asthma (eosinophilic), and interleukin-6 (IL-6), an inflammatory cytokine that plays a role in both Th2 and non-Th2 related asthma. In a cell culture insert, human derived tracheal/bronchial epithelial cells were grown and differentiated on a porous membrane support, allowing an air-liquid interface with warmed culture medium below the cells and a gaseous test atmosphere above. Tissues were cultured in maintenance media ([…]) in a 37° C., 5% CO2 humidified incubator. Four donors were tested. On Day 0, tissue cultures were treated with test compounds in liquid interface at 10 μM, 1 μM and/or 0.1 μM. Compounds were diluted in dimethyl sulfoxide (DMSO, Sigma) to a final concentration of 0.1%. DMSO at 0.1% was used as a vehicle control. Tissue cultures were maintained for 8 days. Media was replaced every 2 days with fresh media containing compounds. On Day 8, supernatants were collected for analysis. Supernatant samples were assayed for periostin and interleukin-6 (IL-6) using luminex analysis (EMD Millipore). Data is expressed as % Inhibition+/-standard deviation (±STDV). Percent inhibition was determined by compound inhibitory potency against spontaneous secretion of periostin and IL-6 compared to vehicle treated cells. Data is the average from 3 or 4 donors.

Sequence of JAK2 (O60674 whole entry): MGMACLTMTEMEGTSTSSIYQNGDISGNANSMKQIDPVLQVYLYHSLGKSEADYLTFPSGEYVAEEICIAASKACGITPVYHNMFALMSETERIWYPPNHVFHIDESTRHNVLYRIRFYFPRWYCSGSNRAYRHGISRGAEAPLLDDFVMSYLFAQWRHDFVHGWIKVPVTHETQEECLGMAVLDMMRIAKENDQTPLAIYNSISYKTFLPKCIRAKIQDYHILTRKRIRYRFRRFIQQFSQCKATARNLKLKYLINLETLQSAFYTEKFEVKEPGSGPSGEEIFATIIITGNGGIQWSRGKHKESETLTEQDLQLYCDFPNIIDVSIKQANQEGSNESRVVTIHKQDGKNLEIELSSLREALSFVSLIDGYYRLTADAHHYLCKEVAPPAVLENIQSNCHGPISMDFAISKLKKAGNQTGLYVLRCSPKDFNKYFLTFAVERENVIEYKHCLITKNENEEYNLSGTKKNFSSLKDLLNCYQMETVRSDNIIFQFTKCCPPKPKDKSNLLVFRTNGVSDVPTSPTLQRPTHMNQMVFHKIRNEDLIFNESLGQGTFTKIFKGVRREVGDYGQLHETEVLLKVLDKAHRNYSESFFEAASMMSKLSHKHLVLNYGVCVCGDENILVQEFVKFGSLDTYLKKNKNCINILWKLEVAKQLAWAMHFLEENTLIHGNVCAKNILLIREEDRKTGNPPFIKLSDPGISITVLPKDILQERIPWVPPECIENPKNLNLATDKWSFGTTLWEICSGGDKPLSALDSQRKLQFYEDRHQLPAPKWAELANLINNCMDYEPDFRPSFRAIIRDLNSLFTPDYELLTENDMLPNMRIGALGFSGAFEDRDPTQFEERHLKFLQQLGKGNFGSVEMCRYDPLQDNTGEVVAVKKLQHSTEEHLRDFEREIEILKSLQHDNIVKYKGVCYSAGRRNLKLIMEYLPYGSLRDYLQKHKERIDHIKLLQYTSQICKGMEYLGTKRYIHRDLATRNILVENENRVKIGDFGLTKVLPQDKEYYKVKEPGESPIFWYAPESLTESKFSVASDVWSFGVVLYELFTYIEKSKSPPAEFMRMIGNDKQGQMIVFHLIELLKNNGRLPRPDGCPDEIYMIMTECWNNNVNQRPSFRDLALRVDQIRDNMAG

CCc1cc(O)ccc1-c1ccc2c(-c3nc4c([nH]3)CN(C(C)C)[C@H](C(=O)N3CC(N(C)C)C3)C4)n[nH]c2c1 [Compound 1, (S)-(3-(dimethylamino)azetidin-1-yl)(2-(6-(2-ethyl-4-hydroxyphenyl)-1H-indazol-3-yl)-5-isopropyl-4,5,6,7-tetrahydro-3H-imidazo[4,5-c]pyridin-6-yl)methanone]
Ki [1]: 0.0316 nM | exposure in lung versus plasma (in words) [2]: significantly more exposure in the lung than exposure in plasma | IC50 [3]: 1000 nM | inhibition at 0.1 µM ([4]; 0.1 μM): 10% | inhibition at 1 µM ([4]; 1 μM): 70% | inhibition at 10 µM ([4]; 10 μM): 91%
